What was measured:
[1] = system: pERK (Thr202/Tyr204) in NCI-H358 cells (KRAS G12C mutation); experiment: ERK phosphorylation assay (assay 1, NCI-H358); format: cell-based; details: Homo sapiens; NCI-H358 (assay 1), 1 h compound incubation
Description: Low IC50 values in this assay setting are indicative of high potency of the compounds according to the invention. […]
• RPMI-1640 Medium (ATCC® 30-2001™) • Fetal Bovine Serum (FBS) from HyClone (SH30071.03) • Non-essential amino acids from Thermo Fischer Scientific (11140035) • Pyruvate from Thermo Fischer Scientific (11360039) • Glutamax from Thermo Fischer Scientific (35050061) • 384 plates from Greiner Bio-One (781182) • Proxiplate™ 384 from PerkinElmer Inc. (6008280) • AlphaLISA SureFire Ultra p-ERK1/2 (Thr202/Tyr204) Assay Kit (ALSU-PERK-A500) EGF from Sigma (E4127) • Acceptor Mix: Protein A Acceptor Beads from PerkinElmer (6760137M) • Donor Mix: AlphaScreen Streptavidin-coated Donor Beads from PerkinElmer (6760002) • Trametinib • Staurosporine from Sigma Aldrich (S6942)
Cells are seeded at 40,000 cells per well in/60 μL of RPMI with 10% FBS, non-essential amino acids, pyruvate and glutamax in Greiner TC 384 plates. The cells are incubated for 1 h at room temperature and then incubated overnight in an incubator at 37° C. and 5% CO2 in a humidified atmosphere. 60 nL compound solution (10 mM DMSO stock solution) is then added using a Labcyte Echo 550 device. After a 1 h incubation in the aforementioned incubator the medium is removed after centrifugation and the cells lysed by addition of 20 μL of 1.6-fold lysis buffer from the AlphaLISA SureFire Ultra pERK1/2 (Thr202/Tyr204) Assay Kit with added protease inhibitors, 100 nM trametinib+100 nM staurosporine. After 20 minutes of incubation at room temperature with shaking, 6 μL of each lysate sample is transferred to a 384-well Proxiplate and analyzed for pERK (Thr202/Tyr204) with the AlphaLISA SureFire Ultra pERK1/2 (Thr202/Tyr204) Assay Kit. 3 μL Acceptor Mix and 3 μL Donor Mix are added under subdued light and incubated for 2 h at room temperature in the dark, before the signal is measured on a PerkinElmer Envision HTS Multilabel Reader. The raw data were imported into and analyzed with the Boehringer Ingelheim proprietary software MegaLab (curve fitting based on the program PRISM, GraphPad Inc.).
IC50 values of representative compounds (I) according to the invention measured with this assay are presented in table 22 (IC50s from assay 2 are marked with *, all others are from assay 1).

[2] = system: NCI-H2122 cells (NSCLC, G12C); experiment: NCI-H2122 CTG proliferation assay (120 h); format: cell-based; details: Homo sapiens, NCI-H2122, CellTiter-Glo
Method: The CTG assay is designed to measure quantitatively the proliferation of NCI-H2122 cells (ATCC CRL-5985), using the CellTiter Glow Assay Kit (Promega G7571). Cells are grown in RPMI medium (ATCC) supplemented with Fetal Calf Serum (Life Technologies, Gibco BRL, Cat. No. 10270-106). On “day 0” 200 NCI-H2122 cells are seeded in 60 μL RPMI ATCC+10% FCS+ Penstrep in a black 384-well plate, flat and clear bottom (Greiner, PNr. 781091). Cells are then incubated in the plates at 37° C. in a CO2 incubator overnight. On day 1, compounds (10 mM stock in DMSO) are added with the ECHO acoustic liquid handler system (Beckman Coulter), including DMSO controls. Plates are incubated for 120 h, and cell viability is measured using CellTiter-Glo luminescent cell viability reagent (Promega product code G7570). Viability (stated as percent of control) is defined as relative luminescence units RLU of each well divided by the RLU of cells in DMSO controls. IC50 values are determined from viability measurements by non-linear regression using a four parameter model.
IC50 values of representative compounds according to the invention measured with these assays in the indicated cell lines: […]

[3] = Metabolic (microsomal) stability assay; format: in vitro ADME; details: human liver microsomes 1 mg/mL, 1 μM compound, 37° C.; predicted clearance as percent of liver blood flow
Method: The metabolic degradation of the test compound is assayed at 37° C. with pooled liver microsomes (mouse (MLM), rat (RLM) or human (HLM)). The final incubation volume of 48 μL per time point contains TRIS buffer (pH 7.5; 0.1 M), magnesium chloride (6.5 mM), microsomal protein (0.5 mg/mL for mouse/rat, 1 mg/mL for human specimens) and the test compound at a final concentration of 1 μM. Following a short preincubation period at 37° C., the reactions are initiated by addition of 12 μL beta-nicotinamide adenine dinucleotide phosphate, reduced form (NADPH, 10 mM) and terminated by transferring an aliquot into solvent after different time points (0, 5, 15, 30, 60 min). Additionally, the NADPH-independent degradation is monitored in incubations without NADPH, terminated at the last time point by addition of acetonitrile. The quenched incubations are pelleted by centrifugation (4,000 rpm, 15 min). An aliquot of the supernatant is assayed by LC-MS/MS to quantify the concentration of parent compound in the individual samples.
In vitro intrinsic clearance (CLint, in vitro) is calculated from the time course of the disappearance of the test drug during the microsomal incubation. Each plot is fitted to the first-order elimination rate constant as C(t)=C0*exp(−ke*t), where C(t) and C0 are the concentration of unchanged test drug at incubation time t and that at preincubation and ke is the disappearance rate constant of the unchanged drug. Subsequently, CLint, in vitro (μL min^−1·amount protein) values are converted to predicted CLint,in vivo (mL min^−1·kg^−1) from incubation parameters according to the equation CLint, in vivo=CLint, in vitro×(incubation volume (ml)/amount protein (mg))×(amount protein (mg)/g liver tissue)×(liver weight/body wt.).
For better across species comparison the predicted clearance is expressed as percent of the liver blood flow [% QH](mL min^−1 kg^−1) in the individual species. In general, high stability (corresponding to low % QH) of the compounds across species is desired.
Metabolic stability data obtained with the disclosed assay in HLM for a selection of compounds (I) according to the invention: […]

| IC50 [1] [nM] | IC50 [2] [nM] | HLM QH [3] [%] | Structure (SMILES) |
| --- | --- | --- | --- |
| 5.3 | 35 | 72 | C=C(F)C(=O)N1[C@@H](C)CN(c2cc(-c3noc4c3CCC[C@@]43CCCc4sc(N)c(C#N)c43)nc(O[C@@H](C)[C@@H]3CCCN3C)n2)C[C@@H]1C [Ib-6] |
| 16.4 | 96 | 41 | C=C(F)C(=O)N1[C@@H](C)CN(c2cc(-c3onc4c3CCC[C@@]43CCCc4sc(N)c(C#N)c43)nc(O[C@@H](C)[C@@H]3CCCN3C)n2)C[C@@H]1C [Ia-3] |
| 373 | 2260 | 76 | COC/C=C/C(=O)N1[C@@H](C)CN(c2cc(-c3noc4c3CCC[C@@]43CCCc4sc(N)c(C#N)c43)nc(O[C@@H](C)[C@@H]3CCCN3C)n2)C[C@@H]1C [Ib-9] |
| 4.2 | 29 | <24 | C[C@H](Oc1cc(N2C[C@H](C)N(C(=O)/C=C/CF)[C@@H](C)C2)nc(-c2noc3c2CCC[C@@]32CCCc3sc(N)c(C#N)c32)n1)[C@@H]1CCCN1C [Ib-1] |
| 26.9 | 999 | 49 | C[C@H](Oc1nc(-c2noc3c2CCC[C@@]32CCCc3sc(N)c(C#N)c32)cc(N2C[C@H](C)N(C(=O)/C=C/c3cccnc3)[C@@H](C)C2)n1)[C@@H]1CCCN1C [Ib-8] |
| 4.7 | 190 | 64 | C[C@H](Oc1nc(-c2noc3c2CCC[C@@]32CCCc3sc(N)c(C#N)c32)cc(N2C[C@H](C)N(C(=O)/C=C/CF)[C@@H](C)C2)n1)[C@@H]1CCCN1C [Ib-7] |
| 8.4 |  | <24 | C=C(F)C(=O)N1[C@@H](C)CN(c2cc(O[C@@H](C)[C@@H]3CCCN3C)nc(-c3onc4c3CCC[C@@]43CCCc4sc(N)c(C#N)c43)n2)C[C@@H]1C [Ia-1] |
| 0.4 |  | 45 | C=CC(=O)N1[C@@H](C)CN(c2cc(-c3noc4c3CCC[C@@]43CCCc4sc(N)c(C#N)c43)nc(O[C@@H](C)[C@@H]3CCCN3C)n2)C[C@@H]1C [Ib-4] |
| 1.1 | 2 | <24 | C=CC(=O)N1[C@@H](C)CN(c2cc(O[C@@H](C)[C@@H]3CCCN3C)nc(-c3onc4c3CCC[C@@]43CCCc4sc(N)c(C#N)c43)n2)C[C@@H]1C [Ia-2] |
| 1 | 19 | <24 | C=CC(=O)N1CCN(c2cc(O[C@@H](C)[C@@H]3CCCN3C)nc(-c3noc4c3CCC[C@@]43CCCc4sc(N)c(C#N)c43)n2)CC12CC2 [Ib-2] |
| 7.7 | 21 | <24 | C=C(F)C(=O)N1[C@@H](C)CN(c2cc(O[C@@H](C)[C@@H]3CCCN3C)nc(-c3noc4c3CCC[C@@]43CCCc4sc(N)c(C#N)c43)n2)C[C@@H]1C [Ib-5] |
| 1.3 |  | 34 | C=CC(=O)N1[C@@H](C)CN(c2cc(O[C@@H](C)[C@@H]3CCCN3C)nc(-c3noc4c3CCC[C@@]43CCCc4sc(N)c(C#N)c43)n2)C[C@@H]1C [Ib-3] |
|  | 4 | 28 | C=CC(=O)N1[C@@H](C)CN(c2cc(-c3onc4c3CCC[C@@]43CCCc4sc(N)c(C#N)c43)nc(O[C@@H](C)[C@@H]3CCCN3C)n2)C[C@@H]1C [Ia-4] |
